# Experimental data from patent US20230287044A1, “NOVEL ANTIBACTERIAL PEPTIDE AND USE THEREOF” (priority 2020, published 2023).
# Where two headings read alike, the source gives them in different places. Square brackets hold non-standard residues; d marks the D form. Peptide text beside a SMILES is read from it.
# Columns and labels:
# [1] = Solubility of antibacterial peptides in solution; type: physicochemical
# [2] = tested on: MRPA (P. aeruginosa) CCARM 2180; type: cell-based, Pseudomonas aeruginosa; conditions: CCARM 2180, 18 h
# Method in brief: (§1)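 Mid-log cultures grown in CAMHB and diluted to 1× 10^6 cfu/ml in PBS were mixed with an equal volume of peptide in CAMHB (80 µM to 0.63 µM twofold dilutions). MIC taken as the mean of three independent experiments.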
# [3] = tested on: MRAB (A. baumannii) ATCC BAA 1605; type: cell-based, Acinetobacter baumannii
# Method in brief: as §1
# [4] = tested on: MRSA (S. aureus) KCCM 40510; type: cell-based, Staphylococcus aureus; conditions: KCCM 40510, 18 h
# Method in brief: as §1
# [5] = tested on: VRE (E. faecalis) ATCC 51575; type: cell-based, Enterococcus faecalis; conditions: ATCC 51575, 18 h
# Method in brief: as §1
# [6] = tested on: 30 species of Acinetobacter baumannii (A. baumannii); type: cell-based; conditions: against 30 species of Acinetobacter baumannii
# Experimental: In addition, the results obtained by measuring the minimum inhibitory concentrations of KSH29, KSH42 and KSH43 against 30 species of Acinetobacter baumannii (A. baumannii) are shown in Table 4 below.
# The minimum inhibitory concentrations (MIC) against the 30 species of Acinetobacter baumannii were measured in the following manner.
# The strain 1605 was purchased from ATCC (American Type Culture Collection, USA). In addition, the strain 40203 was purchased from the Korean Culture Center of Microorganisms.
# The COL^R refers to resistance to colistin, the TGC^R refers to resistance to tigecycline, and the TGC^I refers to tigecycline intermediate strains.
# E. coli = assay: In vivo antibacterial activity in mice (survival rate after E. coli infection); design: species or system mice (BALB/c); conditions: E. coli 1 × 10^6 cfu/mouse subcutaneous; 100 mg/kg after 1, 24 and 48 hours; observed 7 days
# Experimental: The results obtained by analyzing the antibacterial activity against bacteria (E. coli) according to treatment with KSH43 as a survival rate of mice (BALB/c, female. 7-weeks) are shown in FIG. 216.
# Specifically, the strains were grown in CAMHB until the log phase, and then washed with PBS buffer, and infected by subcutaneous injection into mice to 1 × 10^6 cfu/mouse. After 1 hour, 24 hours, and 48 hours, KSH43 and PBS (negative control) were administered at a dose of 100 mg/kg. Thereafter, the survival rate of the mice was checked every 12 hours for 7 days and compared to measure the in vivo antibacterial activity.
Compound,solubility at 12 h ([1]; aqueous buffer),solubility at 12 h ([1]; plasma or biological fluid),solubility at 12 h ([1]; water),MIC MRPA (P. aeruginosa) CCARM 2180 [2],"MIC MRAB (A. baumannii) ATCC BAA 1605 ([3]; CAMHB, 37° C., 18 hours, average of three experiments)",MIC MRSA (S. aureus) KCCM 40510 [4],MIC VRE (E. faecalis) ATCC 51575 [5],MIC50 [6],MIC90 [6],survival rate of mice (E. coli),"MIC MRAB (A. baumannii) ATCC BAA 1605 ([3]; ATCC BAA 1605, 18 h)"
"CC[C@@H](C)[C@@H](NC(=O)[C@@H](Cc1c[nH]c2ccccc12)NC(=O)[C@@H](CCCNC(=N)N)NC(=O)[C@@H](CCCNC(=N)N)NC(=O)[C@H](N)CCCNC(=N)N)C(=O)N[C@H](Cc1c[nH]c2ccccc12)C(=O)N[C@@H](C(=O)N[C@H](CC(C)C)C(=O)N[C@H](Cc1c[nH]c2ccccc12)C(=O)N[C@H](CCCCN)C(N)=O)C(C)C [KSH43, rrrwiwvlwk] (H-[dR][dR][dR][dW][dI][dW][dV][dL][dW][dK]-NH2; N-terminus assumed)",> 200 µM,> 25 µM,> 2000 µM,1.25 µM,0.63 µM,0.63 µM,0.63 µM,0.63 µM,1.25 µM,all mice administered with KSH43 survived for 7 days,
"CC[C@@H](C)[C@@H](NC(=O)[C@@H](Cc1c[nH]c2ccccc12)NC(=O)[C@@H](CCCCN)NC(=O)[C@@H](CCCCN)NC(=O)[C@H](N)CCCCN)C(=O)N[C@H](Cc1c[nH]c2ccccc12)C(=O)N[C@@H](C(=O)N[C@H](CC(C)C)C(=O)N[C@H](Cc1c[nH]c2ccccc12)C(=O)N[C@H](CCCCN)C(N)=O)C(C)C [KSH46, kkkwiwvlwk] (H-[dK][dK][dK][dW][dI][dW][dV][dL][dW][dK]-NH2; N-terminus assumed)",> 200 µM,200 µM,> 2000 µM,1.25 µM,,1.25 µM,1.25 µM,,,,0.63 µM
"CC[C@@H](C)[C@@H](NC(=O)[C@@H](Cc1c[nH]c2ccccc12)NC(=O)[C@H](NC(=O)[C@@H](CC(C)C)NC(=O)[C@H](N)Cc1c[nH]c2ccccc12)C(C)C)C(=O)N[C@H](Cc1c[nH]c2ccccc12)C(=O)N[C@H](CCCNC(=N)N)C(=O)N[C@H](CCCNC(=N)N)C(N)=O [KSH32, wlvwiwrr] (H-[dW][dL][dV][dW][dI][dW][dR][dR]-NH2; N-terminus assumed)",25 µM,50 µM,> 2000 µM,>5 µM,,1.25 µM,1.25 µM,,,,1.25 µM
"CC(C)[C@@H](NC(=O)[C@H](N)Cc1c[nH]c2ccccc12)C(=O)N[C@@H](C(=O)N[C@H](Cc1c[nH]c2ccccc12)C(=O)N[C@H](Cc1c[nH]c2ccccc12)C(=O)N[C@@H](C(=O)N[C@H](CCCNC(=N)N)C(=O)N[C@H](CCCNC(=N)N)C(=O)N[C@H](CCCNC(=N)N)C(N)=O)C(C)C)C(C)C [KSH40, wvvwwvrrr] (H-[dW][dV][dV][dW][dW][dV][dR][dR][dR]-NH2; N-terminus assumed)",≥ 100 µM,100 µM,> 2000 µM,5 µM,,1.25 µM,1.25 µM,,,,1.25 µM
"CC[C@@H](C)[C@@H](NC(=O)[C@@H](Cc1c[nH]c2ccccc12)NC(=O)[C@H](NC(=O)[C@@H](CC(C)C)NC(=O)[C@@H](Cc1c[nH]c2ccccc12)NC(=O)[C@H](N)CC(=O)O)C(C)C)C(=O)N[C@H](Cc1c[nH]c2ccccc12)C(=O)N[C@H](CCCNC(=N)N)C(=O)N[C@H](CCCNC(=N)N)C(=O)N[C@H](CCCNC(=N)N)C(N)=O [KSH36, dwlvwiwrrr] (H-[dD][dW][dL][dV][dW][dI][dW][dR][dR][dR]-NH2; N-terminus assumed)",> 200 µM,100 µM,> 2000 µM,>5 µM,,25 µM,2.5 µM,,,,5 µM
"CC(C)[C@@H](NC(=O)[C@H](N)Cc1c[nH]c2ccccc12)C(=O)N[C@@H](C(=O)N[C@H](Cc1c[nH]cn1)C(=O)N[C@@H](C(=O)N[C@@H](C(=O)N[C@H](Cc1c[nH]c2ccccc12)C(=O)N[C@H](CCCNC(=N)N)C(=O)N[C@H](CCCNC(=N)N)C(=O)N[C@H](CCCNC(=N)N)C(N)=O)C(C)C)C(C)C)C(C)C [KSH45, wvvhvvwrrr] (H-[dW][dV][dV][dH][dV][dV][dW][dR][dR][dR]-NH2; N-terminus assumed)",> 200 µM,50 µM,> 2000 µM,2.5 µM,,1.25 µM,1.25 µM,,,,1.25 µM
